Results from US20240158446A1, “CYCLIC COMPOUND HAVING SELECTIVE INHIBITORY ACTION ON KRAS OVER HRAS AND NRAS” (CHUGAI SEIYAKU KABUSHIKI KAISHA, priority 2021, published 2024).
pKd: −log10 of the molar value. Like-named read-outs stand apart in the source and are kept apart here. *1 amine or outer side, *2 acyl side, *3 side chain or, on linkers, in order; H or OH if unused. Where a SMILES comes first, the peptide text is derived from it. Bridges are numbered along the chain shown (N, C = ends). [ ]: non-standard residue; d: D form. The star is where a group is joined. hPhe(3,5-F2-4-CF3) = N[C@@H](CCc1cc(F)c(C(F)(F)F)c(F)c1)C(=O)O; hPhe(3-Cl-4-CF3) = N[C@@H](CCc1ccc(C(F)(F)F)c(Cl)c1)C(=O)O; NPrPhe(4-CF3) = CCCN[C@@H](Cc1ccc(C(F)(F)F)cc1)C(=O)O; X19 = CCCN([C@@H](CC1CCC(F)(F)CC1)C(=O)[*:2])[*:1]; NMeGly(cPent) = CN[C@H](C(=O)O)C1CCCC1; Pro(4,4-Me2) = CC1(C)CN[C@H](C(=O)O)C1; Ac4c(3,3-F2) = NC1(C(=O)O)CC(F)(F)C1; NMeD = CN[C@@H](CC(=O)O)C(=O)O; NMeL = CN[C@@H](CC(C)C)C(=O)O; Morpholide = C1CN(*)CCO1; Ac5c = NC1(C(=O)O)CCCC1; Ac4c = NC1(C(=O)O)CCC1; NEtG = CCNCC(=O)O; Sar = CNCC(=O)O

Columns and labels:
[1] = target: GDP-bound NRAS wild-type protein (Homo sapiens, UniProt P01111); test: Binding to NRAS by surface plasmon resonance (SPR), Single Cycle Kinetics; conditions: for NRAS/KRAS (ratio of KD value with respect to NRAS to KD value with respect to KRAS) / NRAS/KRAS (ratio of KD value for NRAS to KD value for KRAS): SPR, GDP-bound NRAS wild-type protein vs GDP-bound KRAS wild-type protein
[2] = target: GDP-bound HRAS wild-type protein (Homo sapiens, UniProt P01112); test: Binding to HRAS by surface plasmon resonance (SPR), Single Cycle Kinetics; conditions: for HRAS/KRAS (ratio of KD value with respect to HRAS to KD value with respect to KRAS) / HRAS/KRAS (ratio of KD value for HRAS to KD value for KRAS): SPR, GDP-bound HRAS wild-type protein vs GDP-bound KRAS wild-type protein
[3] = target: GDP-bound KRAS wild-type protein (Homo sapiens, UniProt P01116); test: Binding to KRAS by surface plasmon resonance (SPR), Single Cycle Kinetics; conditions: GDP-bound KRAS wild-type protein, read-out: KRAS KD
[4] = SPR Single Cycle Kinetics, 1:1 binding model

Chain of GDP-bound KRAS wild-type protein (P01116 whole entry): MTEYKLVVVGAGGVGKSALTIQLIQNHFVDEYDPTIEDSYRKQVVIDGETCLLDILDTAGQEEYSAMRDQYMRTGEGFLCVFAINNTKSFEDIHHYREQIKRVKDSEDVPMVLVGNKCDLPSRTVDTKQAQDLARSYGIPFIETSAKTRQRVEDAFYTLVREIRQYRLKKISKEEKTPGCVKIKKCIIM
Chain of GDP-bound NRAS wild-type protein (P01111 whole entry): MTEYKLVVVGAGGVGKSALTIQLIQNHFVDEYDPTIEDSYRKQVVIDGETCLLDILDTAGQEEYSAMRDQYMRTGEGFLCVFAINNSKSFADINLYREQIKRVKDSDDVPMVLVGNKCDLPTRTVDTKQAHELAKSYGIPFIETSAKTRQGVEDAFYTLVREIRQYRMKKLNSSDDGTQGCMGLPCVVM
Chain of GDP-bound HRAS wild-type protein (P01112 whole entry): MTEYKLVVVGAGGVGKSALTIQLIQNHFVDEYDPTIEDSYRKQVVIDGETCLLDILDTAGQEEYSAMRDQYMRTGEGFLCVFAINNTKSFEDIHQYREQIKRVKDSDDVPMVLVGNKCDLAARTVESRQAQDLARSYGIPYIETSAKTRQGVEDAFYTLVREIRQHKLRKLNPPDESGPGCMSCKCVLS

Structure (SMILES)	NRAS/KRAS (ratio of KD value with respect to NRAS to KD value with respect to KRAS) [1]	HRAS/KRAS (ratio of KD value with respect to HRAS to KD value with respect to KRAS) [2]	pKd [3, 4]	NRAS/KRAS (ratio of KD value for NRAS to KD value for KRAS) [1]	HRAS/KRAS (ratio of KD value for HRAS to KD value for KRAS) [2]	pKd ([3]; SPR, Single Cycle Kinetics)	further results
CCCN1C(=O)CN(C)C(=O)CN(CC)C(=O)[C@H]([C@@H](C)CC)NC(=O)[C@H](CC(C)C)N(C)C(=O)C[C@@H](C(=O)N2CCOCC2)N(C)C(=O)[C@H](C2CCCC2)N(C)C(=O)C2(CCCC2)NC(=O)[C@@H]2CC(C)(C)CN2C(=O)[C@H](CCc2ccc(C(F)(F)F)c(Cl)c2)NC(=O)CN(C)C(=O)[C@@H]1Cc1ccc(C(F)(F)F)cc1 [PP0450] ([NMeL]I[NEtG][Sar][NPrPhe(4-CF3)][Sar][hPhe(3-Cl-4-CF3)][Pro(4,4-Me2)][Ac5c][NMeGly(cPent)][NMeD]-Morpholide; lactam N-11)	B (a compound having 3 or more and less than 10 is denoted as B)	C (A compound having a KD ratio of 0.1 or more and less than 3 is denoted as C)	9.42				
CCCN1C(=O)CN(C)C(=O)CN(C)C(=O)[C@H]([C@@H](C)CC)NC(=O)[C@H](CC(C)C)N(C)C(=O)C[C@@H](C(=O)N2CCOCC2)N(C)C(=O)[C@H](C2CCCC2)N(C)C(=O)C2(CCCC2)NC(=O)[C@@H]2CCCN2C(=O)[C@H](CCc2ccc(C(F)(F)F)c(Cl)c2)NC(=O)CN(C)C(=O)[C@@H]1CC1CCC(F)(F)CC1 [PP0526] ([NMeL]I[Sar][Sar][X19][Sar][hPhe(3-Cl-4-CF3)]P[Ac5c][NMeGly(cPent)][NMeD]-Morpholide; lactam N-11)	B (a compound having 3 or more and less than 10 is denoted as B)	C (A compound having a KD ratio of 0.1 or more and less than 3 is denoted as C)	10.13				
CCO[C@@H]1C[C@H]2C(=O)NC3(CCC3)C(=O)N(C)[C@@H](C3CCCC3)C(=O)N(C)[C@H](C(=O)N(C)CCOC)CC(=O)N(C)[C@@H](CC(C)C)C(=O)N[C@@H]([C@@H](C)CC)C(=O)N(C)CC(=O)N(C)[C@H]3C/C=C\CCN(C3=O)[C@@H](Cc3ccc(C(F)(F)F)cc3)C(=O)N(C)CC(=O)N[C@@H](CCc3ccc4sccc4c3)C(=O)N2C1 [PP1325]							NRAS/KRAS (ratio of KD value for NRAS to KD value for KRAS) ([1]; KD ratio class): A (a compound having 10 or more and less than 20 is denoted as A); HRAS/KRAS (ratio of KD value for HRAS to KD value for KRAS) ([2]; KD ratio class): A (a compound having 10 or more and less than 20 is denoted as A); pKd ([3]; SPR, Single Cycle Kinetics, 1:1 binding model): 9.26
CCC[C@H]1C(=O)N[C@@H]([C@@H](C)CC)C(=O)N2CCC[C@H]2C(=O)N(C)[C@H]2C/C=C\CCN(C2=O)[C@@H](CC2CCC(F)(F)CC2)C(=O)N(C)CC(=O)N[C@@H](CCc2ccc(C(F)(F)F)c(OC)c2)C(=O)N2C[C@H](OCC)C[C@H]2C(=O)N(C)C2(CCC2)C(=O)N(C)[C@@H](C(CC)CC)C(=O)N(C)[C@H](C(=O)N(C)C)CC(=O)N1C [PP2353]				A (a compound having 10 or more and less than 20 is denoted as A)	A (a compound having 10 or more and less than 20 is denoted as A)	8.39	
CCO[C@@H]1C[C@H]2C(=O)NC3(CC(C)(C)C3)C(=O)N(C)[C@@H](C3CCCC3)C(=O)N(C)[C@H](C(=O)N3CCCCC3)CC(=O)N(C)[C@H]3CCC/C=C/c4ccc(cc4)C[C@@H](C(=O)N(C)CC(=O)N[C@@H](CCc4ccc(Cl)c(Cl)c4)C(=O)N2C1)N1CC/C=C\C[C@@H](C1=O)N(C)C(=O)CN(C)C(=O)[C@H]([C@@H](C)CC)NC3=O [PP2578]			9.57				NRAS/KRAS (ratio of KD value with respect to GDP-bound NRAS wild-type protein to KD value with respect to KRAS) ([1]; SPR KD ratio NRAS/KRAS, class symbols): AA (a compound having 20 or more is denoted as AA); HRAS/KRAS (ratio of KD value with respect to GDP-bound HRAS wild-type protein to KD value with respect to KRAS) ([2]; SPR KD ratio HRAS/KRAS, class symbols): A (a compound having 10 or more and less than 20 is denoted as A)
CCCN1C(=O)CN(C)C(=O)CN(C)C(=O)[C@H]([C@@H](C)CC)NC(=O)[C@H](CC(C)C)N(C)C(=O)C[C@@H](C(=O)N2CCOCC2)N(C)C(=O)[C@H](C2CCCC2)N(C)C(=O)C2(CC(F)(F)C2)NC(=O)[C@@H]2CCCN2C(=O)[C@H](CCc2cc(F)c(C(F)(F)F)c(F)c2)NC(=O)CN(C)C(=O)[C@@H]1Cc1ccc(C(F)(F)F)cc1 [PP0766] ([NMeL]I[Sar][Sar][NPrPhe(4-CF3)][Sar][hPhe(3,5-F2-4-CF3)]P[Ac4c(3,3-F2)][NMeGly(cPent)][NMeD]-Morpholide; lactam N-11)	B (a compound having 3 or more and less than 10 is denoted as B)	B (a compound having 3 or more and less than 10 is denoted as B)	10.02				
CCC[C@H]1C(=O)N[C@@H]([C@@H](C)CC)C(=O)N(C)CC(=O)N(C)[C@H]2C/C=C\CCN(C2=O)[C@@H](Cc2ccc(C(F)(F)F)cc2)C(=O)N(C)CC(=O)N[C@@H](CCc2ccc(C(F)(F)F)c(Cl)c2)C(=O)N2CC3(CC3)C[C@H]2C(=O)NC2(CC(C)(C)C2)C(=O)N(C)[C@@H](CC(C)C)C(=O)N(C)[C@H](C(=O)N(C)C)CC(=O)N1C [PP2987]				AA (a compound having 20 or more is denoted as AA)	A (a compound having 10 or more and less than 20 is denoted as A)	9.18	
CCO[C@@H]1C[C@H]2C(=O)NC3(CCC3)C(=O)N(C)[C@@H](C3CCCC3)C(=O)N(C)[C@H](C(=O)N(C)C)CC(=O)N(C)[C@@H](CC)C(=O)N[C@@H]([C@@H](C)CC)C(=O)N(C)CC(=O)N(C)[C@H]3CCCCCN(C3=O)[C@@H](Cc3ccc(F)c(OC)c3)C(=O)N(C)CC(=O)N[C@@H](CCc3cc(F)c(C(F)(F)F)c(F)c3)C(=O)N2C1 [PP0915]				B (a compound having 3 or more and less than 10 is denoted as B)	B (a compound having 3 or more and less than 10 is denoted as B)	9.85	
CCO[C@@H]1C[C@H]2C(=O)NC3(CCCC3)C(=O)N(C)[C@@H](C3CCCC3)C(=O)N(C)[C@H](C(=O)N(C)C)CC(=O)N(C)[C@@H](CC(C)C)C(=O)N[C@@H]([C@@H](C)CC)C(=O)N(C)CC(=O)N(C)[C@H]3CCCCCN(C3=O)[C@@H](Cc3ccc(C(F)(F)F)cc3)C(=O)N(C)CC(=O)N[C@@H](CCc3cc(F)c(C(F)(F)F)c(F)c3)C(=O)N2C1 [PP0468]	B (a compound having 3 or more and less than 10 is denoted as B)	B (a compound having 3 or more and less than 10 is denoted as B)	9.10				
CCCN1C(=O)CN(C)C(=O)CN(CC)C(=O)[C@H]([C@@H](C)CC)NC(=O)[C@H](CC(C)C)N(C)C(=O)C[C@@H](C(=O)N2CCOCC2)NC(=O)[C@H](C2CCCC2)N(C)C(=O)C2(CCC2)NC(=O)[C@@H]2CCCN2C(=O)[C@H](CCc2ccc(C(F)(F)F)c(Cl)c2)NC(=O)CN(C)C(=O)[C@@H]1Cc1ccc(C(F)(F)F)cc1 [PP0332] ([NMeL]I[NEtG][Sar][NPrPhe(4-CF3)][Sar][hPhe(3-Cl-4-CF3)]P[Ac4c][NMeGly(cPent)]D-Morpholide; lactam N-11)			8.49	B (a compound having 3 or more and less than 10 is denoted as B)	B (a compound having 3 or more and less than 10 is denoted as B)		
CC[C@H](C)[C@@H]1NC(=O)[C@H](CC(C)C)N(C)C(=O)C[C@@H](C(=O)N2CCOCC2)N(C)C(=O)[C@H](C2CCCC2)N(C)C(=O)C2(COC2)NC(=O)[C@@H]2CCCN2C(=O)[C@H](CCc2cc(F)c(C(F)(F)F)c(F)c2)NC(=O)CN(C)C(=O)[C@H](Cc2ccc(C(F)(F)F)cc2)N2CCCC[C@@H](C2=O)N(C)C(=O)CN(C)C1=O [PP0563]	B (a compound having 3 or more and less than 10 is denoted as B)	B (a compound having 3 or more and less than 10 is denoted as B)	10.00				
CCC[C@H]1C(=O)N[C@@H](C2CCCCC2)C(=O)N(C)CC(=O)N(C)[C@H]2C/C=C\CCN(C2=O)[C@@H](Cc2ccc(C(F)(F)F)cc2)C(=O)N(C)CC(=O)N[C@@H](CCc2ccc(C(F)(F)F)c(Cl)c2)C(=O)N2C[C@H](OCC)C[C@H]2C(=O)NC2(CC(C)(C)C2)C(=O)N(C)[C@@H](C2CCCC2)C(=O)N(C)[C@H](C(=O)N(C)C)CC(=O)N1C [PP2996]				AA (a compound having 20 or more is denoted as AA)	A (a compound having 10 or more and less than 20 is denoted as A)	9.44	
